Several values for one entry are separate records, joined by “and”; a condition that tells them apart may be missing. Identical values can stand only once. Inconclusive results and toxic doses are left out.
Test system: P388 leukemia ip, CD2F1 mice, survival T/C
Experiment: NCI In Vivo Anticancer Drug Screen. Data for tumor model P388 Leukemia (intraperitoneal) in CD2F1 (CDF1) mice
Settings: endpoint: median survival time, higher = longer survival
Procedure, shortened: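 Mice carrying the transplanted tumor received test compound or vehicle. Survival was recorded in each group, and the value is the treated-group measurement divided by that of the vehicle-treated control group.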

**Q.** Which T/C (dose: 8.0 mg/kg/injection, schedule: Q04DX003 (ip), vehicle: saline) does the source give for COc1cccc2c1C(=O)c1c(O)c3c(c(O)c1C2=O)CC(O)(C(=O)CO)CC3OC1CC(N)C(O)C(C)O1 (centres undefined) here?
**A.** 109 % of control

**Q.** And the T/C (dose: 9.0 mg/kg/injection, schedule: Q04DX003 (ip), vehicle: water)?
**A.** 121 % of control

**Q.** What about the T/C (dose: 9.5 mg/kg/injection, schedule: Q04DX003 (ip), vehicle: other) of the same compound?
**A.** 179 % of control

**Q.** And the T/C (dose: 9.5 mg/kg/injection, schedule: Q04DX003 (ip), vehicle: saline)?
**A.** 208 % of control

**Q.** And the T/C (dose: 10.0 mg/kg/injection, schedule: Q04DX003 (ip), vehicle: water)?
**A.** 112 % of control

**Q.** And the T/C (dose: 12.0 mg/kg/injection, schedule: Q01DX009 (ip), vehicle: water)?
**A.** 204 % of control

**Q.** What about the T/C (dose: 12.0 mg/kg/injection, schedule: Q04DX003 (ip), vehicle: water) of the same compound?
**A.** 116 % of control

**Q.** And the T/C (dose: 12.5 mg/kg/injection, schedule: Q01DX009 (ip), vehicle: water)?
**A.** 229 % of control

**Q.** And the T/C (dose: 14.2 mg/kg/injection, schedule: Q04DX003 (ip), vehicle: other)?
**A.** 198 % of control

**Q.** What about the T/C (dose: 14.2 mg/kg/injection, schedule: Q04DX003 (ip), vehicle: saline) of the same compound?
**A.** 193 % of control

**Q.** And the T/C (dose: 15.0 mg/kg/injection, schedule: Q04DX003 (ip), vehicle: clinical formulation)?
**A.** 152 % of control

**Q.** And the T/C (dose: 16.0 mg/kg/injection, schedule: Q04DX003 (ip), vehicle: saline)?
**A.** 119 % of control

**Q.** What about the T/C (dose: 21.3 mg/kg/injection, schedule: Q04DX003 (ip), vehicle: other) of the same compound?
**A.** 207 % of control

**Q.** What about the T/C (dose: 21.3 mg/kg/injection, schedule: Q04DX003 (ip), vehicle: saline) of the same compound?
**A.** 86 % of control

**Q.** What about the T/C (dose: 22.5 mg/kg/injection, schedule: Q04DX003 (ip), vehicle: water) of the same compound?
**A.** 109 % of control and 115 % of control

**Q.** And the T/C (dose: 23.4 mg/kg/injection, schedule: Q01DX009 (ip), vehicle: saline)?
**A.** 123 % of control and 217 % of control

**Q.** And the T/C (dose: 25.0 mg/kg/injection, schedule: Q01DX009 (ip), vehicle: water)?
**A.** 220 % of control

**Q.** And the T/C (dose: 25.0 mg/kg/injection, schedule: Q04DX003 (ip), vehicle: saline)?
**A.** 98 % of control

**Q.** What about the T/C (dose: 32.0 mg/kg/injection, schedule: Q04DX003 (ip), vehicle: other) of the same compound?
**A.** 160 % of control

**Q.** What about the T/C (dose: 32.0 mg/kg/injection, schedule: Q04DX003 (ip), vehicle: saline) of the same compound?
**A.** 172 % of control

**Q.** And the T/C (dose: 36.0 mg/kg/injection, schedule: Q04DX003 (ip), vehicle: water)?
**A.** 163 % of control

**Q.** What about the T/C (dose: 44.0 mg/kg/injection, schedule: Q04DX003 (ip), vehicle: water) of the same compound?
**A.** 110 % of control

**Q.** What about the T/C (dose: 45.0 mg/kg/injection, schedule: Q04DX003 (ip), vehicle: water) of the same compound?
**A.** 124 % of control

**Q.** What about the T/C (dose: 48.0 mg/kg/injection, schedule: Q04DX003 (ip), vehicle: other) of the same compound?
**A.** 87 % of control

**Q.** What about the T/C (dose: 48.0 mg/kg/injection, schedule: Q04DX003 (ip), vehicle: water) of the same compound?
**A.** 175 % of control and 294 % of control

**Q.** And the T/C (dose: 50.0 mg/kg/injection, schedule: Q01DX009 (ip), vehicle: water)?
**A.** 117 % of control

**Q.** What about the T/C (dose: 50.0 mg/kg/injection, schedule: Q04DX003 (ip), vehicle: other) of the same compound?
**A.** 161 % of control

**Q.** And the T/C (dose: 64.0 mg/kg/injection, schedule: Q04DX003 (ip), vehicle: saline)?
**A.** 167 % of control and 153 % of control

**Q.** What about the T/C (dose: 72.0 mg/kg/injection, schedule: Q04DX003 (ip), vehicle: other) of the same compound?
**A.** 93 % of control

**Q.** And the T/C (dose: 72.0 mg/kg/injection, schedule: Q04DX003 (ip), vehicle: water)?
**A.** 196 % of control

**Q.** And the T/C (dose: 80.0 mg/kg/injection, schedule: Q04DX003 (ip), vehicle: water)?
**A.** 118 % of control

**Q.** And the T/C (dose: 90.0 mg/kg/injection, schedule: Q04DX003 (ip), vehicle: water)?
**A.** 159 % of control and 174 % of control

**Q.** What about the T/C (dose: 108.0 mg/kg/injection, schedule: Q04DX003 (ip), vehicle: other) of the same compound?
**A.** 88 % of control

**Q.** And the T/C (dose: 108.0 mg/kg/injection, schedule: Q04DX003 (ip), vehicle: water)?
**A.** 163 % of control

**Q.** And the T/C (dose: 128.0 mg/kg/injection, schedule: Q04DX003 (ip), vehicle: other)?
**A.** 182 % of control

**Q.** What about the T/C (dose: 128.0 mg/kg/injection, schedule: Q04DX003 (ip), vehicle: saline) of the same compound?
**A.** 204 % of control and 184 % of control

**Q.** What about the T/C (dose: 160.0 mg/kg/injection, schedule: Q04DX003 (ip), vehicle: water) of the same compound?
**A.** 95 % of control

**Q.** What about the T/C (dose: 180.0 mg/kg/injection, schedule: Q04DX003 (ip), vehicle: water) of the same compound?
**A.** 168 % of control

**Q.** What about the T/C (dose: 256.0 mg/kg/injection, schedule: Q04DX003 (ip), vehicle: other) of the same compound?
**A.** 175 % of control

**Q.** And the T/C (dose: 256.0 mg/kg/injection, schedule: Q04DX003 (ip), vehicle: saline)?
**A.** 110 % of control and 213 % of control

**Q.** And the T/C (dose: 267.0 mg/kg/injection, schedule: Q04DX003 (ip), vehicle: water)?
**A.** 109 % of control

**Q.** And the T/C (dose: 360.0 mg/kg/injection, schedule: Q04DX003 (ip), vehicle: water)?
**A.** 97 % of control

**Q.** What about the T/C (dose: 400.0 mg/kg/injection, schedule: Q04DX003 (ip), vehicle: water) of the same compound?
**A.** 99 % of control

**Q.** What about the T/C (dose: 512.0 mg/kg/injection, schedule: Q04DX003 (ip), vehicle: saline) of the same compound?
**A.** 90 % of control

Reference: PubChem BioAssay AID330 (DTP/NCI, 2004)
